Reference: patent US9884854B2, “N-[(pyrimidinylamino)propanyl]-and N[(pyrazinylamino)proppanyl]arylcarboxamides” (Boehringer Ingelheim International GmbH, priority 2016, dated 2018)
pIC50: −log10 of the molar value. Read-outs that look alike come from different tables or passages of the source.

Tests used:
OX1R = biological target: T1, OX1R (Homo sapiens, UniProt O43613); conditions: cited from earlier work
T1 sequence (O43613 1-425): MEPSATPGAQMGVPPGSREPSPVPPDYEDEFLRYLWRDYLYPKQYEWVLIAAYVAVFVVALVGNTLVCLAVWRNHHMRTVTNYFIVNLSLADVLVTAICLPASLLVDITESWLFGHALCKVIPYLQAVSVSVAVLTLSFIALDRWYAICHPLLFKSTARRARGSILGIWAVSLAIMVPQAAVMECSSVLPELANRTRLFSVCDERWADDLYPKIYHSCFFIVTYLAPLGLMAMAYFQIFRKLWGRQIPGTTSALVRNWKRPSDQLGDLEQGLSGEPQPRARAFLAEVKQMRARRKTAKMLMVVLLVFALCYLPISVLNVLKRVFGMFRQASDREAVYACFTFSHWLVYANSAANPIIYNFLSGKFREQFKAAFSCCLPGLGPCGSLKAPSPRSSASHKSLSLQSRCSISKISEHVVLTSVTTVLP

human MDR1 P-gp = test: Assay D: efflux in MDCK cells transfected with the human MDR1 gene; format: in vitro ADME, canine; conditions: dog; MDCK-MDR1 monolayers, pH 7.4, 37° C.; read-out: MDCK efflux ratio (BA/AB)
Protocol: The MDCK assay provides information on the potential of a compound to pass the blood brain barrier. Permeability measurements across polarized, confluent MDCK-MDR1 cell monolayers grown on permeable filter supports are used as an in vitro absorption model: apparent permeability coefficients (PE) of the compounds across the MDCK-MDR1 cell monolayers are measured (pH 7.4, 37° C.) in apical-to-basal (AB) and basal-to-apical (BA) transport direction. The AB permeability (PEAB) represents drug absorption from the blood into the brain and the BA permeability (PEBA) drug efflux from the brain back into the blood via both, passive permeability as well as active transport mechanisms mediated by efflux and uptake transporters that are expressed on the MDCK-MDR1 cells, predominantly by the overexpressed human MDR1 P-gp. Identical or similar permeabilities in both transport directions indicate passive permeation, vectorial permeability points to additional active transport mechanisms. Higher PEBA than PEAB (PEBA/PEAB>5) indicates the involvement of active efflux mediated by MDR1 P-gp, which might compromises the goal to achieve sufficient brain exposure. Therefore this assay provides valuable support for selection of compounds applicable for further in vivo testing. High permeability not limited by efflux at the blood brain barrier is a favourable characteristic for compounds that are to be used for drugs acting primarily in the CNS
D. Assessment of Efflux in Madin-Darby Canine Kidney (MDCK) Cells Transfected with the Human MDR1 Gene
Apparent permeability coefficients (PE) of the compounds across the MDCK-MDR1 cell monolayers are measured (pH 7.4, 37° C.) in apical-to-basal (AB) and basal-to-apical (BA) transport direction. AB permeability (PEAB) represents drug absorption from the blood into the brain and BA permeability (PEBA) drug efflux from the brain back into the blood via both passive permeability as well as active transport mechanisms mediated by efflux and uptake transporters that are expressed on the MDCK-MDR1 cells, predominantly by the overexpressed human MDR1 P-gp. The compounds are assigned to permeability/absorption classes by comparison of the AB permeabilities with the AB permeabilities of reference compounds with known in vitro permeability and oral absorption in the human. Identical or similar permeabilities in both transport directions indicate passive permeation, vectorial permeability points to additional active transport mechanisms. Higher PEBA than PEAB indicates the involvement of active efflux mediated by MDR1 P-gp. Active transport is concentration-dependently saturable.
MDCK-MDR1 cells (1-2×10e5 cells/1 cm2 area) are seeded on filter inserts (Costar transwell polycarbonate or PET filters, 0.4 μm pore size) and cultured (DMEM) for 7 days. Subsequently, the MDR1 expression is boosted by culturing the cells with 5 mM sodium butyrate in full medium for 2 days. Compounds are dissolved in appropriate solvent (like DMSO, 1-20 mM stock solutions). Stock solutions are diluted with HTP-4 buffer (128.13 mM NaCl, 5.36 mM KCl, 1 mM MgSO4, 1.8 mM CaCl2, 4.17 mM NaHCO3, 1.19 mM Na2HPO4×7H2O, 0.41 mM NaH2PO4×H2O, 15 mM HEPES, 20 mM glucose, 0.25% BSA, pH 7.4) to prepare the transport solutions (0.1-300 μM compound, final DMSO<=0.5%). The transport solution (TL) is applied to the apical or basolateral donor side for measuring A-B or B-A permeability (3 filter replicates), respectively. The receiver side contains the same buffer as the donor side. Samples are collected at the start and end of experiment from the donor and at various time intervals for up to 2 hours also from the receiver side for concentration measurement by HPLC-MS/MS or scintillation counting. Sampled receiver volumes are replaced with fresh receiver solution.

OX2R = biological target: T2, OX2R (Homo sapiens, UniProt O43614); conditions: cited from earlier work
T2 sequence (O43614 1-444): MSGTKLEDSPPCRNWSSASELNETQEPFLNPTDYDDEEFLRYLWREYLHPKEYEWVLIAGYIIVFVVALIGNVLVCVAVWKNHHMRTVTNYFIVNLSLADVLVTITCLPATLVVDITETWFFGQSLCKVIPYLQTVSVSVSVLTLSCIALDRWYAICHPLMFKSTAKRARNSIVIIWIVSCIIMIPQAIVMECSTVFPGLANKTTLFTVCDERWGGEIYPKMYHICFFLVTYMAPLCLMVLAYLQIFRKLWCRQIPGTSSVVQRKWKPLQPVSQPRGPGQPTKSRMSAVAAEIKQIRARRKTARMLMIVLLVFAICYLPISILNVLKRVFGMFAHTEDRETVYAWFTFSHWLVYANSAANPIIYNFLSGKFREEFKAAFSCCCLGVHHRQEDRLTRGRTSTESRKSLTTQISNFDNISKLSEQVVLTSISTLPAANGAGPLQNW

human Orexin 1 receptor = biological target: T3, human Orexin 1 receptor (Homo sapiens, UniProt O43613); test: Assay A: OX1R IP1 (in vitro OX1R potency); format: cell-based
T3 construct: stably expressing the full-length human Orexin 1 receptor and the aequorin photoprotein; expressed in transfected cells; host or cells: CHO-K1 (CHO-K1/hOx1), co-expressing aequorin
T3 sequence (O43613 1-425): T1 sequence (O43613 1-425)
From the text: Activation of the orexin receptors expressed in cell lines results in an increase in intracellular IP3 concentration. IP1, a downstream metabolite of IP3, accumulates in cells following receptor activation and is stable in the presence of LiCl. Using Homogeneous Time-Resolved Fluorescence technology with Lumi4-Tb cryptate (commercially available from Cisbio Bioassay.) and a suitable fluorescence plate reader. […] This technique is used to characterize pharmacological modification of the orexin receptors.
A. In Vitro Testing of OX1R Potency: OX1R IP1
IP1 measurements are performed in CHO-K1 cells stably expressing the full-length human Orexin 1 receptor and the aequorin photoprotein. Cells are cultivated in Ham's nutrient mixture F12 medium with 10% fetal calf serum, in a 37° C., 95% humidity and 5% CO2 incubator. The CHO-K1/hOx1 cell mass is expanded to larger cell numbers. The cells are obtained as frozen cells in cryo-vials and stored until use at −150° C. […] In preparation for the assay, 24 hours before the assay, the cells are thawed at 37° C. and immediately diluted with cell culture medium. After centrifugation, the cell pellet is re-suspended in medium and then distributed into the assay plates with a density of 10000 cells/25 μL per well. The plates are incubated for one hour at room temperature to reduce edge effects before they are incubated for 24 hours at 37° C./5% CO2. Compounds are prepared by an 8-point serial dilution in DMSO and a final dilution step into assay buffer (HBSS with 20 mM HEPES, 0.1% BSA and 50 mM LiCl, pH 7.4) to ensure a final DMSO concentration of 1% in the assay.
On the day of the assay, cells in the plate are washed twice with 60 μL assay buffer (20 μL buffer remained in the wells after washing), followed by adding 5 μL per well of compounds diluted in assay buffer. After 15 minutes of incubation at room temperature 5 μL per well of Orexin A peptide (final concentration: 0.5 nM, and/or 50 nM) dissolved in assay buffer is added to the assay plate. The assay plate is incubated for 60 minutes at 37° C. Then 5 μl per well of Anti-IP1-Cryptate Tb solution and 5 μl per well of IP1-d2 dilution are added and the plate is incubated for a further 60 minutes light protected at room temperature. […] 8-point four parametric non-linear curve fitting and determination of IC50 values and Hill slopes is performed using a regular analysis software e.g. AssayExplorer (Accelrys).
Kb values from Assay A (OX1R) and Assay B (OX2R) can then provide a selectivity ratio which is independent of the agonist (Orexin A) concentration.

[1] = corresponds to pIC50, Table 3 of WO2016/034882

Row | Structure (SMILES) | efflux ratio (human MDR1 P-gp) | also measured
1 | CC[C@@H](CNc1cnc(C(F)(F)F)cn1)N(C)C(=O)c1cc(Cl)ccc1-n1nccn1 [Ex 40 in WO2016/034882, reference compound] | < 3 | OX2R IC50/OX1R IC50 (OX1R; Table 3 of WO2016/034882): Table 3: 156
2 | CC[C@@H](CNc1ncc(C(F)(F)F)cn1)N(C)C(=O)c1nc(C)ccc1-n1nccn1 [Ex 46 in WO2016/034882] | < 3 | OX2R IC50/OX1R IC50 (OX1R; Table 1 of WO2016/034882): 390; OX2R IC50/OX1R IC50 (OX1R; Table 2 of WO2016/034882): > 312; OX2R IC50/OX1R IC50 (OX1R; Table 3 of WO2016/034882): 3200; OX2R pIC50 (OX2R; Table 2 of WO2016/034882): < 5.0; OX2R pIC50 (OX2R; Table 3 of WO2016/034882): < 5.0; pIC50 (OX2R; corresponds to pIC50, Table 2 of WO2016/034882): < 5.00; pIC50 (OX2R; [1]): ≤ 5.00
3 | CC[C@@H](CNc1ncc(C(F)(F)F)cn1)N(CC)C(=O)c1nc(C)ccc1-n1nccn1 [Ex 73 in WO2016/034882] | – | OX2R pIC50 (OX2R; Table 3 of WO2016/034882): < 6.0; pIC50 (OX2R; [1]): < 6.00
4 | CC[C@@H](CNc1ncc(C(F)(F)F)cn1)N(C)C(=O)c1nc(C)ccc1-c1ncccn1 [Ex 84 in WO2016/034882, reference compound] | < 3 | OX2R IC50/OX1R IC50 (OX1R; Table 3 of WO2016/034882): Table 3: 526
5 | CC[C@@H](CNc1ncc(C(F)(F)F)cn1)N(C)C(=O)c1nc(C)ccc1-n1cccn1 [Ex 90 in WO2016/034882] | < 3 | OX2R IC50/OX1R IC50 (OX1R; Table 3 of WO2016/034882): Table 3: >526; OX2R pIC50 (OX2R; Table 3 of WO2016/034882): < 6.0
6 | CC[C@@H](CNc1ncc(C(F)(F)F)cn1)N(C)C(=O)c1c(F)cccc1-n1nccn1 [Ex 91 in WO2016/034882] | < 3 | OX2R pIC50 (OX2R; Table 3 of WO2016/034882): < 5.1; pIC50 (OX2R; [1]): ≤ 5.10
7 | CCN(C(=O)c1ccc(F)cc1-n1nccn1)[C@@H](C)CNc1ncc(C(F)(F)F)cn1 [Example 2] | < 3 | –
8 | CCN(C(=O)c1ccc(F)c(F)c1-n1nccn1)[C@@H](C)CNc1ncc(C(F)(F)F)cn1 [Example 4] | < 3 | –
9 | CCN(C(=O)c1cc(F)ccc1-n1nccn1)[C@@H](C)CNc1ncc(C(F)(F)F)cn1 [Example 5] | < 3 | –
10 | CCN(C(=O)c1c(F)cccc1-n1nccn1)[C@@H](C)CNc1ncc(C(F)(F)F)cn1 [Example 7] | < 3 | more potent at OX1R (human Orexin 1 receptor; versus Example 91 in WO2016/034882): 25 fold
11 | CCN(C(=O)c1cc(C#N)ccc1-n1nccn1)[C@@H](C)CNc1ncc(C(F)(F)F)cn1 [Example 8] | 3 to 5 | –
12 | CCN(C(=O)c1cc(F)cnc1-n1nccn1)[C@@H](C)CNc1ncc(C(F)(F)F)cn1 [Example 10] | < 3 | –
13 | CCN(C(=O)c1cccc(F)c1-c1ncccn1)[C@@H](C)CNc1ncc(C(F)(F)F)cn1 [Example 11] | 3 to 5 | –
14 | CCN(C(=O)c1nc(C)ccc1-n1cccn1)[C@@H](C)CNc1ncc(C(F)(F)F)cn1 [Example 12] | < 3 | higher potency at OX1R (human Orexin 1 receptor; versus Example 90 in WO2016/034882): at least 3 fold
15 | CCN(C(=O)c1c(F)cccc1-c1ncccn1)[C@@H](C)CNc1ncc(C(F)(F)F)cn1 [Example 13] | < 3 | –
16 | CCN(C(=O)c1ccccc1-c1noc(C)n1)[C@@H](C)CNc1ncc(C(F)(F)F)cn1 [Example 14] | < 3 | –
17 | CCN(C(=O)c1cc(F)ccc1-c1ncccn1)[C@@H](C)CNc1ncc(C(F)(F)F)cn1 [Example 15] | < 3 | –
18 | CCN(C(=O)c1ccc(F)cc1-c1ncccn1)[C@@H](C)CNc1ncc(C(F)(F)F)cn1 [Example 16] | < 3 | –
19 | CCN(C(=O)c1ncccc1-c1ccccc1)[C@@H](C)CNc1ncc(C(F)(F)F)cn1 [Example 19] | < 3 | –
20 | CCN(C(=O)c1cncnc1-c1ccccc1)[C@@H](C)CNc1ncc(C(F)(F)F)cn1 [Example 20] | < 3 | –
21 | CCN(C(=O)c1nccnc1-c1ccccc1)[C@@H](C)CNc1ncc(C(F)(F)F)cn1 [Example 21] | < 3 | –
22 | CCN(C(=O)c1ccccc1-n1nccn1)[C@@H](C)CNc1cnc(C(F)(F)F)cn1 [Example 22] | 3 to 5 | –
23 | CCN(C(=O)c1ccc(F)cc1-c1nnc(C)o1)[C@@H](C)CNc1cnc(C(F)(F)F)cn1 [Example 23] | 3 to 5 | –
24 | CCN(C(=O)c1cccc(F)c1-n1nccn1)[C@@H](C)CNc1cnc(C(F)(F)F)cn1 [Example 24] | 3 to 5 | –
